The values below come from paper PMC3094853 (Chembiochem : a European journal of chemical biology, 2010).

Where two headings read alike, the source gives them in different places.

One assay has as its target HER2 TK (Homo sapiens, UniProt P04626). As to the kind of experiment: ELISA of biotinylated peptide phosphorylation. It counts as biochemical. In general terms: An ELISA detects its analyte on a solid surface through an enzyme-linked reagent.
The next assay has as its target HER1 TK (Homo sapiens, UniProt P00533). In words: ELISA of biotinylated peptide phosphorylation. The following applies: 20 µM ATP; 1.5 µM peptide substrate; 5 mM MgCl2; 5 mM MnCl2; HEPES pH 7.5; 23 °C. The format is biochemical.

As for `COc1cc(/C=C(\C#N)C(N)=O)cc(CSc2nc3ccccc3s2)c1O` [AG-825], the IC50 against HER2 TK came out at 590 nM.

As for 4-trifluoromethylcinnamoyl pyrone [2e], the IC50 amounted to 330 nM at HER1 TK and 160 nM against HER2 TK (20 µM ATP, 1.5 µM peptide substrate, 5 mM MgCl2, 5 mM MnCl2, HEPES pH 7.5, 23 °C).

As a reminder, the IC50 is the concentration that gives 50% inhibition. Low readings indicate greater potency in that assay, high ones weaker potency in that assay.
